This is an account of results in patent US11331290B2, “Niclosamide for the treatment of cancer metastasis” (Max-Delbrück-Centrum für Molekulare Medizin in der …, priority 2011, dated 2022).

The assay concerns the target T1, CTNNB1/TCF complex (Homo sapiens, UniProt P35222, DEL45-45).
T1 construct: endogenous in cells; host or cells: HCT116 nuclear extract
T1 sequence (P35222 1-781): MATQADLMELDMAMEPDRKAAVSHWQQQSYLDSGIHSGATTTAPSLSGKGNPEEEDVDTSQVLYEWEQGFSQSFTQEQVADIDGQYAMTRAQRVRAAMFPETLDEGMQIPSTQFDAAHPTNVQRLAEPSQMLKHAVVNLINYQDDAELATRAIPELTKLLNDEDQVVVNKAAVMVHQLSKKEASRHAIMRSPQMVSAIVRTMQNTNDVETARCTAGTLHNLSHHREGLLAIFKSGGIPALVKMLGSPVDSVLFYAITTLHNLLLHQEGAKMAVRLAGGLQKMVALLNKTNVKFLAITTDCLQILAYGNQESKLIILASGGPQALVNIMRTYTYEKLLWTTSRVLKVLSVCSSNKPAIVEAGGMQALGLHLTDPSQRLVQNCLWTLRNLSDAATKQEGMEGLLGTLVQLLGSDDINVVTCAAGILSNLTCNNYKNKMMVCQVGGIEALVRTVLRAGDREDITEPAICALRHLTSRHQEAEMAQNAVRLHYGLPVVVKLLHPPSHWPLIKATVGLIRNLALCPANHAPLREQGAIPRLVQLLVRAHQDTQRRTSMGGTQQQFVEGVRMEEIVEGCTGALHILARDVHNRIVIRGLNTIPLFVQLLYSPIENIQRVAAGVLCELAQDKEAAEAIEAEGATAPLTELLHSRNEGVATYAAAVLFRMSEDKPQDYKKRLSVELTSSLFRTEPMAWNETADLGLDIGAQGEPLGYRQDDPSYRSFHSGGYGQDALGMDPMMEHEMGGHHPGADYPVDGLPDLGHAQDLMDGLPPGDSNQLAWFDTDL
T1 sequence (P35222 with tags, fused parts or gaps DEL45-45): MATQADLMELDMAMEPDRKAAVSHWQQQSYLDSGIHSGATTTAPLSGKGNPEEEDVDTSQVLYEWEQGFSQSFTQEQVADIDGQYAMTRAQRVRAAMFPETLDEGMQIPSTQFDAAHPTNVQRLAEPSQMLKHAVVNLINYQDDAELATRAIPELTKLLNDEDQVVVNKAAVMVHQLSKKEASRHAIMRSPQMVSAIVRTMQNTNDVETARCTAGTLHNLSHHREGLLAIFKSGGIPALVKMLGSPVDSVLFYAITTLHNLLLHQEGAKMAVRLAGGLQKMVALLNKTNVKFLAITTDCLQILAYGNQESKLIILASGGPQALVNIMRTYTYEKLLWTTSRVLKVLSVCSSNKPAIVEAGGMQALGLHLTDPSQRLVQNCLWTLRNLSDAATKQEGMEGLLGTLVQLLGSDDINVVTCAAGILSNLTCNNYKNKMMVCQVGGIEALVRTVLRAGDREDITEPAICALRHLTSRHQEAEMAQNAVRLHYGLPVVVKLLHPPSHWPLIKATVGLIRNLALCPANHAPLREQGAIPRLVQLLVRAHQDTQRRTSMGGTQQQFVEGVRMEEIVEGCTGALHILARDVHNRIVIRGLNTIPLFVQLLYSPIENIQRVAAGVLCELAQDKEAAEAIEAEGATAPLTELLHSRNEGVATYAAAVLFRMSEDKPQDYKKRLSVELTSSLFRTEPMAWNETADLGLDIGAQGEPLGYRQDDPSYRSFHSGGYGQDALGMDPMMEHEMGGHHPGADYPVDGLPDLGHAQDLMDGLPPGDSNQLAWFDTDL
In words: Electrophoretic mobility shift assay (EMSA), TCF-binding site of the S100A4 promoter. The class given is cell-based. The protocol: Electrophoretic mobility shift assay (EMSA) was performed as described earlier (4). 5×10^6 HCT116 cells were plated into a 10 cm culture dish and were given 15 hour to attach to the bottom of the dish. Cells were treated with 0.1, 0.3, 0.6 or 1 μM niclosamide or the respective amount of DMSO for 24 hours. For each condition 5 μg nuclear extracted protein was incubated 30 minutes at room temperature with 0.05% w/v poly dI⋅dC, 0.5 mM Tris, 0.05 mM EDTA, 2.5% v/v glycerol, 0.2% v/v NP-40, 5 mM MgCl2 and double-stranded biotinylated oligonucleotides (sense 5′-[…]-3′, antisense 3′-[…] T-5′) encompassing the TCF-binding site of the S100A4 promoter. For supershift 1.25 μg monoclonal CTNNB1 antibody (BD Biosciences) was added. […]
For WNT pathway analysis the following cells were applied: HCT116 cells (heterozygous for gain-of-function-mutated CTNNB1; wt/mut), HAB-68mut cells (deletion mutant of HCT116, expressing only gain-of-function-mutated CTNNB1: −/mut) and HAB-92 wt cells (deletion mutant of HCT116, expressing only wild-type CTNNB1: wt/−). […] Reporter gene expression was determined by luciferase activity measurement. […] S100A4 expression was analyzed by qRT-PCR and immunoblot. […] Cells were treated with 1 μM niclosamide for 24 hours and cell migration was determined by Boyden chamber assay. […] Differences were analyzed by Student's t test (n.s.; not statistically significant). […]
On the technique in general: In EMSA bound probe runs differently from free probe, usually more slowly.

In the case of `O=C(Nc1ccc([N+](=O)[O-])cc1Cl)c1cc(Cl)ccc1O` [niclosamide, 2′,5-dichloro-4′-nitrosalicylanilide], the “supershift with monoclonal anti-CTNNB1” value (nuclear extracts from 1 μM niclosamide-treated HCT116 cells) is “No supershift could be detected”. Further, for the setting “nuclear extracts of HCT116 cells, increasing concentrations (0.1, 0.3, 0.6 or 1 μM)”, the CTNNB1/TCF/oligo complex result is on record as “interrupted the CTNNB1/TCF/oligo complex in a concentration-dependent manner”.
